{"source": "ChEMBL document CHEMBL1121894", "about": "“Studies on phenethylamine hallucinogens. 2. Conformations of arylmethoxyl groups using 13C NMR” (1981)", "note": "The source made the active and inactive calls. No cut-off for these calls is given here."}
{"species_on_record": "Homo sapiens", "experiment": "Psychotomimetic potency expressed as the effective dose of mescaline divided by the effective dose in human; Inactive", "type": "functional, organism-based"}
{"smiles": "COc1ccc(CC(C)N)c(OC)c1OC", "note": "(stereo unspecified)", "Potency": "inactive"}
{"smiles": "COc1ccc(CCN)c(OC)c1OC", "Potency": "inactive"}
{"species_on_record": "Homo sapiens", "experiment": "Psychotomimetic potency expressed as the effective dose of mescaline divided by the effective dose in human", "type": "functional", "units": {"Potency": "MU"}}
{"smiles": "COc1cc(CC(C)N)c(OC)cc1C.Cl", "note": "(stereo unspecified)", "Potency": 80}
{"smiles": "COc1cc(CCN)cc(OC)c1OC.Cl", "Potency": 1}
{"smiles": "COc1ccc(OC)c(CC(C)N)c1.Cl", "note": "(stereo unspecified)", "Potency": 8}
{"smiles": "COc1ccc(CC(C)N)cc1.Cl", "note": "(stereo unspecified)", "Potency": 5}
{"smiles": "COc1c(CC(C)N)ccc2c1OCO2.Cl", "note": "(stereo unspecified)", "Potency": 10}
{"smiles": "COc1c(CCN)ccc2c1OCO2.Cl", "Potency": 5}
{"smiles": "COc1cc(CC(C)N)cc(OC)c1OC.Cl", "note": "(stereo unspecified)", "Potency": 2.2}
{"smiles": "COc1cc(OC)c(OC)cc1CC(C)N.Cl", "note": "(stereo unspecified)", "Potency": 17}
{"smiles": "COc1cc(OC)c(CC(C)N)c(OC)c1.Cl", "note": "(stereo unspecified)", "Potency": 10}
